Columns and labels:
[1] = target: T1, STE20-related kinase adapter protein alpha (Homo sapiens) (UniProt Q7RTN6); test: Selectivity interaction (Kinase panel (KiNativ target engagement assay in Jurkat cells)) EUB0001635a STRADA; type: cell-based; conditions: Selectivity number of off-targets 0.0, Selectivity number of targets 233.0, Source Knowledge https://www.sciencedirect.com/science/article/pii/S2451945619300674?via%3Dihub, at 1 µM
T1 sequence (whole entry): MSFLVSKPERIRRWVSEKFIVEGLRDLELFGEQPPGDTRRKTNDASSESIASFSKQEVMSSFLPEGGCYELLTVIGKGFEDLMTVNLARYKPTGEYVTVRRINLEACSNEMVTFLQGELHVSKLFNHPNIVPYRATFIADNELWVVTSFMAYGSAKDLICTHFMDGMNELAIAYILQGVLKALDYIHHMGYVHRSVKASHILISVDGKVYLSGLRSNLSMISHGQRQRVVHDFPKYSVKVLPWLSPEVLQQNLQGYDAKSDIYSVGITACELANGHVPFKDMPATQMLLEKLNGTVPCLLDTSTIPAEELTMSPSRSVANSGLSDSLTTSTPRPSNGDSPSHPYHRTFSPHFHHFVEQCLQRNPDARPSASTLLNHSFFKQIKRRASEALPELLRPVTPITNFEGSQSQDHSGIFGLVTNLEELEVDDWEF

[2] = target: T2, Inhibitor of nuclear factor kappa-B kinase subunit alpha (Homo sapiens) (UniProt O15111); test: Selectivity interaction (Kinase panel (KiNativ target engagement assay in Jurkat cells)) EUB0001635a CHUK; type: cell-based; conditions: Selectivity number of off-targets 0.0, Selectivity number of targets 233.0, Source Knowledge https://www.sciencedirect.com/science/article/pii/S2451945619300674?via%3Dihub, at 1 µM
T2 sequence (whole entry): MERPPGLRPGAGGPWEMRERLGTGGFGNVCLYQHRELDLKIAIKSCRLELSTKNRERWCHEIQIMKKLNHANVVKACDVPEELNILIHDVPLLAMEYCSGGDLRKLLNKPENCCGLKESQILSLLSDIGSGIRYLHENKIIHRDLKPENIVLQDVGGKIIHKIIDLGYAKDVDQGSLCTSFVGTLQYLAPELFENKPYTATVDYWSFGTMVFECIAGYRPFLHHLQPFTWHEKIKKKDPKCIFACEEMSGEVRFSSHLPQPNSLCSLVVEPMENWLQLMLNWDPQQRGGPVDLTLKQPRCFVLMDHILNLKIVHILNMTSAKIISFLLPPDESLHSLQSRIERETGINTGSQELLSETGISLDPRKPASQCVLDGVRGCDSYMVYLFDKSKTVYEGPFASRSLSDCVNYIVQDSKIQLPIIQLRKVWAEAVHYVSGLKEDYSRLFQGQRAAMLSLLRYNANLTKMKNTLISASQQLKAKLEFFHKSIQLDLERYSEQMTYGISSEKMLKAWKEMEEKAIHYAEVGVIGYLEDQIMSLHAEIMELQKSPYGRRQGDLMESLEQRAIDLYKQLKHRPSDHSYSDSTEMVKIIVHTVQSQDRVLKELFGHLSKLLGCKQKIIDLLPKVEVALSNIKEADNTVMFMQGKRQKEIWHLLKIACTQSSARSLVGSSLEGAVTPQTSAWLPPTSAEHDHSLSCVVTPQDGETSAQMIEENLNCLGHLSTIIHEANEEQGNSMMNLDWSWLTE

[3] = target: T3, Serine/threonine-protein kinase STK11 (Homo sapiens) (UniProt Q15831); test: Selectivity interaction (KinomeScan (DiscoverX)) EUB0000229b STK11; conditions: at 10 µM
T3 sequence (whole entry): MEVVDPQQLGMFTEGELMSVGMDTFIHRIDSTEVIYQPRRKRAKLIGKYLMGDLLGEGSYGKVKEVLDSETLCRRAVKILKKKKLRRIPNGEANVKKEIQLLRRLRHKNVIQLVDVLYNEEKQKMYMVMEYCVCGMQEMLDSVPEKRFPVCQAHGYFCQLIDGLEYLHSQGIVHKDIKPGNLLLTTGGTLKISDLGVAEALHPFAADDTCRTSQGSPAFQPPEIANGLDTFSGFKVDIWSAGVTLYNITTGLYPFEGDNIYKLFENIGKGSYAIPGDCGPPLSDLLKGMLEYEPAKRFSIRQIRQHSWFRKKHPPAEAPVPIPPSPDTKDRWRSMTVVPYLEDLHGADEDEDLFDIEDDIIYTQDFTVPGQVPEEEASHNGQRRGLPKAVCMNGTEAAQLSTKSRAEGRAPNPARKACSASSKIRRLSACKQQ

[4] = target: T4, Tyrosine-protein kinase receptor TYRO3 (Homo sapiens) (UniProt Q06418); test: Selectivity interaction (KinomeScan (DiscoverX)) EUB0001619a TYRO3; conditions: at 1 µM
T4 sequence (whole entry): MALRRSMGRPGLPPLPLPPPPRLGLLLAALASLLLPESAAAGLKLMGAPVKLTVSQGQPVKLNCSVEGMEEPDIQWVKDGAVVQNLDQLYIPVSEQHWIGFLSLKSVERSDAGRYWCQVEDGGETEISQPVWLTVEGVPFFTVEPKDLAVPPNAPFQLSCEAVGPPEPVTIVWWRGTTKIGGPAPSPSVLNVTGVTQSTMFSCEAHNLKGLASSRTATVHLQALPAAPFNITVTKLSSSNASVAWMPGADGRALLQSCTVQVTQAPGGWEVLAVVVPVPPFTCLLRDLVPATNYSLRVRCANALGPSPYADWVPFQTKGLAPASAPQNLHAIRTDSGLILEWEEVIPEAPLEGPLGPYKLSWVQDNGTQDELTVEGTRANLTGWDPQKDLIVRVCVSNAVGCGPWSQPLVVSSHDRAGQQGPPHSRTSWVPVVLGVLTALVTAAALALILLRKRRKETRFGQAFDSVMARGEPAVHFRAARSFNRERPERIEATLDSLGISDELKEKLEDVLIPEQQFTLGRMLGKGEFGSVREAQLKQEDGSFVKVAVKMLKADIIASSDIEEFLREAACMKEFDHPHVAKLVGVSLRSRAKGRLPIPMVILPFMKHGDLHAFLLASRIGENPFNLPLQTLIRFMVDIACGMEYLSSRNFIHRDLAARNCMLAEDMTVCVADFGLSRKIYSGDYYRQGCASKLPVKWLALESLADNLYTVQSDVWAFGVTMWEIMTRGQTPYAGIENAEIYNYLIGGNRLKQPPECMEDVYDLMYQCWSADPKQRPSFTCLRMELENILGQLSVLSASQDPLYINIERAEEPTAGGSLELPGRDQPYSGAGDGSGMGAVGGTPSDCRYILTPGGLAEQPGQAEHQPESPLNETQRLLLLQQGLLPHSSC

[5] = target: Platelet-derived growth factor receptor alpha (Homo sapiens, UniProt P16234); test: Selectivity interaction (KinomeScan (DiscoverX)) EUB0000607a PDGFRA; conditions: at 10 µM
Sequence of Platelet-derived growth factor receptor alpha (P16234 whole entry): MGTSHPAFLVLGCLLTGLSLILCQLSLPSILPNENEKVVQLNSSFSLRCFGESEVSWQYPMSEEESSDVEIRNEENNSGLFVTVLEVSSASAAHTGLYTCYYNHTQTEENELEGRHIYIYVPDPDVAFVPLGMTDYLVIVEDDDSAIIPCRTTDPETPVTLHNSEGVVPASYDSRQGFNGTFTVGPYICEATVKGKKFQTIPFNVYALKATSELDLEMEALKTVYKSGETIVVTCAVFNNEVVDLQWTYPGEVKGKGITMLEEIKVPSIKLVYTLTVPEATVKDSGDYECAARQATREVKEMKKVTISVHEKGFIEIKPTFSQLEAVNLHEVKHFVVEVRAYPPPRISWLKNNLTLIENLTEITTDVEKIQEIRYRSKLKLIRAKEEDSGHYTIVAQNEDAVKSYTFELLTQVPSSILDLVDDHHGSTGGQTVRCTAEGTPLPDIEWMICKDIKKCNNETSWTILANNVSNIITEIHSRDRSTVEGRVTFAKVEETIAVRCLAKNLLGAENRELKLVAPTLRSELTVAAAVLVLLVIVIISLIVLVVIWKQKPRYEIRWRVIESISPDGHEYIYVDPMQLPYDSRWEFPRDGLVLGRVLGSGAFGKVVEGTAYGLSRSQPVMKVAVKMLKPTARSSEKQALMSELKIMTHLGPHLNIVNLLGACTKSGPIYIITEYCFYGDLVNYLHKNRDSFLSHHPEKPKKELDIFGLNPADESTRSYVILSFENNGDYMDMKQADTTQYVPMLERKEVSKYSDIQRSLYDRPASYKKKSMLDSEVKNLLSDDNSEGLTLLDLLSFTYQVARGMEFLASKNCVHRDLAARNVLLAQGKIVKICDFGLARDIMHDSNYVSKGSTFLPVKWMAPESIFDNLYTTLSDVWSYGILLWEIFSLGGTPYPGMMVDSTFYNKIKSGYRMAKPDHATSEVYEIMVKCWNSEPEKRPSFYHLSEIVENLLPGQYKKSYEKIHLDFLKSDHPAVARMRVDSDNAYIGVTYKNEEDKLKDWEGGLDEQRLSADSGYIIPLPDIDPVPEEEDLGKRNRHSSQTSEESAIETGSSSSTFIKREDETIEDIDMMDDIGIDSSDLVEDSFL

[6] = target: Cyclin-dependent kinase 2 (Homo sapiens, UniProt P24941); test: Selectivity interaction (ActivX KiNativ screen (kinase selectivity in THP-1 cell lysates)) EUB0000639a CDK2; type: subcellular; conditions: lysate
[7] = target: Cyclin-dependent kinase 14 (Homo sapiens) (UniProt O94921); test: Selectivity interaction (ActivX KiNativ screen (kinase selectivity in THP-1 cell lysates)) EUB0000639a CDK14; type: subcellular; conditions: lysate, at 0.2 µM
Sequence of Cyclin-dependent kinase 14 (Homo sapiens) (O94921 whole entry): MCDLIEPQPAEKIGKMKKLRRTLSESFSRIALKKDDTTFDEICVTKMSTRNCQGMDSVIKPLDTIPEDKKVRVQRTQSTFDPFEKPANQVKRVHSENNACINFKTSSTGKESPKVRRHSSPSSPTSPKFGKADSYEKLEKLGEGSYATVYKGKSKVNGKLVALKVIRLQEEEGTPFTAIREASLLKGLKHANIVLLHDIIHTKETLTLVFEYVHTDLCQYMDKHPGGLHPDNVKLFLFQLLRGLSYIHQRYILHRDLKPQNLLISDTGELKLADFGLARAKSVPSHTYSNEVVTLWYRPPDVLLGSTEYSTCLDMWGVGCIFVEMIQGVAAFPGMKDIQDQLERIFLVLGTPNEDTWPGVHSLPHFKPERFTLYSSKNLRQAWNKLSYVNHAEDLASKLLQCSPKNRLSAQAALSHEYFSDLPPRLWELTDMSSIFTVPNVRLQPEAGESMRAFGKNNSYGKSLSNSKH

SMILES: C=CC(=O)Nc1ccc(C(=O)Nc2[nH]nc3c2CN(C(=O)N[C@H](CN(C)C)c2ccccc2)C3(C)C)cc1
- % of engagement [1]: -20.7%
- % of engagement [2]: -7.3%

SMILES: COc1cc(N(C)c2ccnc3ccc(C(F)(F)F)cc23)cc(OC)c1OC
- % binding [3]: 77%

SMILES: N#Cc1cccc(-c2c[nH]c3ncnc(N4CCOCC4)c23)c1
- % of control [4]: 100%

SMILES: CNC(=O)Nc1ccc(-c2nc(N3CC4CCC(C3)O4)c3cnn(C4CCC5(CC4)OCCO5)c3n2)cc1
- % of control [5]: 80%

SMILES: CC[C@@H]1[C@H](F)C(=O)N[C@@H]1COc1nccc2cc(C(N)=O)c(OC)cc12 [ZIMLOVISERTIB]
- % of inhibition ([6]; at 0.01 µM): 1.9%
- % of inhibition ([6]; at 0.04 µM): -4%
- % of inhibition ([6]; at 0.2 µM): 12.3%
- % of inhibition ([6]; at 1 µM): -8.5%
- % of inhibition ([6]; at 5 µM): 6.3%
- % of inhibition [7]: -7.5%

From ChEMBL document CHEMBL5465560, “Selectivity Literature for EUbOPEN Chemogenomic Library” (2024)
